One assay has as its system male C57BL/6 mice. As to the kind of experiment: Oral Glucose Tolerance Test (OGTT). Further details: concentration or dose not given beside the values. Format: in vivo. To be noted: fasted male C57BL/6 mice, oral administration 30 minutes before oral glucose; AUCglucose 0-120 minutes versus negative control group. The method, then: The oral glucose tolerance test of the compounds according to the present invention was carried out according to the procedures disclosed in Andrikopoulos S, Blair A R, Deluca N, Fam B C, Proietto J, Am J Physiol Endocrinol Metab. 2008, Vol 295, E1323-1332. Briefly, male C57BL/6 mice at 8 to 9 weeks of age having 20 g to 25 g of body weight (Orient Bio Inc. Korea) were allowed to acclimatize to the surroundings (temperature: 20±2° C., humidity: 40-60%, light/dark cycle: 12 hours) for 1 week. During the acclimatization, the mice were given ad libitum access to feed and water. The mice were fasted from 18 hours before the test, except for allowing free access to water. After measuring the mice′ body weights and blood sugar levels, they were divided into test groups so as to have similar blood sugar levels. The mice were orally administered with a mixture of test compound and the diluent (0.5% solution of MC1500 (Sigma)). At 30 minutes after the administration, the mice were also orally administered with 20% glucose solution in an amount of 0.1 ml per 10 g of body weight. The blood samples were taken from the tail vain at 0 (right before the administration of the glucose solution), 15, 30, 60, 90, and 120 minutes after the administration of the glucose solution; and the blood sugar levels thereof were measured with a blood glucose test meter (GlucoDr. AGM-3000, All Medicus Co. Ltd.). The graph for blood sugar level on time for each test compound was plotted from the respective blood sugar values; and then area under the curve (AUCglucose) was determined. The inhibition rate of blood sugar (%) was calculated from the following formula. Inhibition rate of blood sugar (%)=[(AUCglucose of the negative control group−AUCglucose of the test group)/AUCglucose of the negative control group]×100

Assay [1] addresses T1, GPR119 (Homo sapiens, UniProt Q8TDV5).
T1 construct: host or cells: CHO-K1 (GPR119 CRE-bla, doxycycline-induced)
T1 sequence (Q8TDV5 1-335): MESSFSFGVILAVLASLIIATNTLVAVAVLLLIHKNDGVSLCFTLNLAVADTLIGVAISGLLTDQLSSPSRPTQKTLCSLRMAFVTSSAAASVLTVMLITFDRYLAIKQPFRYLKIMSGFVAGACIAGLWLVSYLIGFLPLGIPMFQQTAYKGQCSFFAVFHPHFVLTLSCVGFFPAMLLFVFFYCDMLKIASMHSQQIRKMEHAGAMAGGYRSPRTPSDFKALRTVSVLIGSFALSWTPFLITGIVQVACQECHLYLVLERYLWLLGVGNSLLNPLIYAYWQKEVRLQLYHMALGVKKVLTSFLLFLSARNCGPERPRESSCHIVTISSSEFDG
Kind of assay: cAMP Accumulation Assay (GPR119 CRE-bla CHO-K1 cells, LiveBLAzer-FRET B/G). Format: cell-based. To be noted: for EC50: 5 hours incubation; for Emax (Fold): maximum activity, response ratio versus non-treated control group. The method, then:
32 μl of an assay medium (DMEM supplemented with GlutaMax™ 99%, dialyzed FBS 1%, non-essential amino acid 1 mM, HEPES 25 mM, penicillin 100 U/ml, and streptomycin 100 μg/ml) was added to each well of a 384 black well plate and then the GPR119 CRE-bla CHO-K1 cells (Invitrogen) were seeded in 1×10^4 cells per well. Doxycycline was dissolved in the assay medium in the concentration of 1 μg/ml. The resulting solution (4 μl) was added to each well, which was then incubated in a 5% CO 2 incubator at 37° C. for about 20 to 24 hours. Each test compounds were diluted with the assay medium to prepare 10 samples, which have concentrations ranging from […], respectively. Each samples (8 μl) was added to each well, which was then incubated in a 5% CO2 incubator at 37° C. for 5 hours. In case of the control group, the well was treated with a solution (8 μl) prepared by diluting dimethyl sulfoxide (DMSO) in the assay medium to 1%. The substrate mixture (8 μl) was added to each well, which was then left under darkness at room temperature for 2 hours. The substrate mixture contains the followings: 1 mM LiveBLAzer™-FRET B/G(CCF4-AM) substrate 6 μl, solution B 60 μl, solution C 904 μl, and solution D 30 μl.
Fluorescence intensity was determined under the wavelength conditions of 400 nm/465 nm (excitation/emission) for the blue channel and 400 nm/535 nm (excitation/emission) for the green channel, with the fluorescence microplate reader (SpectraFluor Plus. TECAN). The net activity of each well was calculated by subtracting the average value of the cell-free control group from the value of the unstimulated (i.e., non-treated) control group or the stimulated (i.e., test compound-treated) group at each wavelength. MBX-2982 (Metabolex) was used as a control drug. The response ratio was calculated by dividing the net signal ratio (465 nm/535 nm) of the control drug or the test compound by the net signal ratio (465 nm/535 nm) of the non-treated control group. The relative ratio (R.R) was calculated by dividing the maximum activity [Emax (fold)] of the test compound (i.e., % activity in comparison with the background) by the maximum activity [Emax (fold)] of the control drug (MBX-2982) [Emax (% RR)=(Emax of the test compound/Emax of MBX-2982)×100]. EC50 (half maximal effective concentration) was calculated using the software for statistical analysis “Prism 5.0 (GraphPad)”, based on the values obtained according to concentrations of the test compounds.

The target in assay [2] is T1, GPR119. Described as above. Format: cell-based. To be noted: (Emax of the test compound/Emax of MBX-2982)x100, 5 hours incubation.

For the molecule `CCc1cnc(N2CCN(c3ncc(-c4ccc(-n5cnn(C(C)C)c5=O)c(F)c4)cc3C#N)CC2)nc1` [Example 44, 2-(4-(5-ethylpyrimidin-2-yl)piperazin-1-yl)-5-(3-fluoro-4-(1-isopropyl-5-oxo-1H-1,2,4-triazol-4(5H)-yl)phenyl)nicotinonitrile sulfonate], in the assay with male C57BL/6 mice, the “Inhibition rate of blood sugar (%)” value worked out at 27.0%.
Take `CCCn1ncn(-c2ccc(-c3ccc(N4CCN(C(=O)OC(C)(C)C)CC4C(F)(F)F)nc3)cc2F)c1=O` (centres unmarked) [Example 50, tert-butyl 4-(5-(3-fluoro-4-(5-oxo-1-propyl-1H-1,2,4-triazol-4(5H)-yl)phenyl)pyridin-2-yl)-3-(trifluoromethyl)piperazin-1-carboxylate]: the “Inhibition rate of blood sugar (%)” value with male C57BL/6 mice was 15.6%.
A word on the EC50: it is the concentration giving half of the maximal effect. Regarding `CC(C)n1ncn(-c2ccc(-c3cnc(N4CCC(N(C)C(=O)OC(C)(C)C)CC4)c(C#N)c3)cc2F)c1=O` [Example 58, tert-butyl 1-(3-cyano-5-(3-fluoro-4-(1-isopropyl-5-oxo-1H-1,2,4-triazol-4(5H)-yl)phenyl)pyridin-2-yl)piperidin-4-yl(methyl)carbamate], on GPR119 [1], the EC50 was 16 nM and the “Emax (Fold)” value was found to be 2.6 Fold. Also, at GPR119 [2], the “Emax (% RR)” value turned out to be 105.4 % RR.
Take `C=C(C)OC(=O)N(C)C1CCN(c2ncc(-c3ccc(-n4cnn(C(C)C)c4=O)c(F)c3)cc2C#N)CC1` [Example 59, prop-1-en-2-yl 1-(3-cyano-5-(3-fluoro-4-(1-isopropyl-5-oxo-1H-1,2,4-triazol-4(5H)-yl)phenyl)pyridin-2-yl)piperidin-4-yl(methyl)carbamate]: on GPR119 [1], the EC50 amounted to 31 nM and the “Emax (Fold)” value is given as 2.5 Fold. Also, the “Emax (% RR)” value on GPR119 [2] was 100.8 % RR.
With `CCN(CC)CCn1ncn(-c2ccc(-c3cnc(N4CCC(N(C)C(=O)OC(C)(C)C)CC4)c(C#N)c3)cc2F)c1=O` [Example 61, tert-butyl 1-(3-cyano-5-(4-(1-(2-(diethylamino)ethyl)-5-oxo-1H-1,2,4-triazol-4(5H)-yl)-3-fluorophenyl)pyridin-2-yl)piperidin-4-yl(methyl)carbamate], in the assay on male C57BL/6 mice, the “Inhibition rate of blood sugar (%)” value was 18.0%.
On to `CCCn1ncn(-c2ccc(-c3cnc(N4CCC(c5nc(C(C)C)no5)CC4)c(C#N)c3)cc2F)c1=O` [Example 62, 5-(3-fluoro-4-(5-oxo-1-propyl-1H-1,2,4-triazol-4(5H)-yl)phenyl)-2-(4-(3-isopropyl-1,2,4-oxadiazol-5-yl)piperidin-1-yl)nicotinonitrile], for which, at GPR119 [1], the EC50 is 1.3 nM and the “Emax (Fold)” value was 3.5 Fold. In addition, the “Emax (% RR)” value at GPR119 [2] turned out to be 122.7 % RR.
Turning to `CCN(CC)CCn1ncn(-c2ccc(-c3cnc(N4CCC(c5nc(C(C)C)no5)CC4)c(C#N)c3)cc2F)c1=O` [Example 63, 5-(4-(1-(2-(diethylamino)ethyl)-5-oxo-1H-1,2,4-triazol-4(5H)-yl)-3-fluorophenyl)-2-(4-(3-isopropyl-1,2,4-oxadiazol-5-yl)piperidin-1-yl)nicotinonitrile], the “Inhibition rate of blood sugar (%)” value in the assay with male C57BL/6 mice is reported as 27.7%.
For the molecule `CC(C)c1noc(C2CCN(c3ncc(-c4ccc(-n5cnn(CN6CCCC6)c5=O)c(F)c4)cc3C#N)CC2)n1` [Example 64, 5-(3-fluoro-4-(5-oxo-1-(pyrrolidin-1-ylmethyl)-1H-1,2,4-triazol-4(5H)-yl)phenyl)-2-(4-(3-isopropyl-1,2,4-oxadiazol-5-yl)piperidin-1-yl)nicotinonitrile], on GPR119 [1], the EC50 was 2.6 nM and the “Emax (Fold)” value amounted to 3.8 Fold. For the same molecule, the “Emax (% RR)” value on GPR119 [2] was 130.8 % RR.
On the same counts, the results for `CCn1ncn(-c2ccc(-c3cnc(N4CCC(c5nc(C(C)C)no5)CC4)c(C#N)c3)cc2)c1=O` [Example 65, 5-(4-(1-ethyl-5-oxo-1H-1,2,4-triazol-4(5H)-yl)phenyl)-2-(4-(3-isopropyl-1,2,4-oxadiazol-5-yl)piperidin-1-yl)nicotinonitrile] are 2.4 nM, 3.6 Fold and 123.8 % RR.
On the same counts, the results for `CCCn1ncn(-c2ccc(-c3cnc(N4CCC(c5noc(C(C)C)n5)CC4)c(C#N)c3)cc2F)c1=O` [Example 66, 5-(3-fluoro-4-(5-oxo-1-propyl-1H-1,2,4-triazol-4(5H)-yl)phenyl)-2-(4-(5-isopropyl-1,2,4-oxadiazol-3-yl)piperidin-1-yl)nicotinonitrile] are 2.5 nM, 3.1 Fold and 122.1 % RR.
Turning to `CC(C)c1nc(C2CCN(c3ncc(-c4ccc(-n5cnn(CN6CCCC6)c5=O)c(F)c4)cc3C#N)CC2)no1` [Example 68], at GPR119 [1], the response was half-maximal at 2.6 nM (EC50) and the “Emax (Fold)” value was 3.8 Fold. The “Emax (% RR)” value on GPR119 [2] is listed as 130.8 % RR.
`CC(C)c1nc(C2CCN(c3ncc(-c4ccc(-n5cnn(CC(N)=O)c5=O)cc4)cc3C#N)CC2)no1` [Example 72, 2-(4-(4-(5-cyano-6-(4-(5-isopropyl-1,2,4-oxadiazol-3-yl)piperidin-1-yl)pyridin-3-yl)phenyl)-5-oxo-4,5-dihydro-1H-1,2,4-triazol-1-yl)acetamide]: in the assay on male C57BL/6 mice, the “Inhibition rate of blood sugar (%)” value was found to be 16.5%.
For `CC(C)n1ncn(-c2ccc(-c3cnc(N4CCC(c5nnc(C(F)(F)F)o5)CC4)c(C#N)c3)cc2)c1=O` [Example 73, 5-(4-(1-isopropyl-5-oxo-1H-1,2,4-triazol-4(5H)-yl)phenyl)-2-(4-(5-(trifluoromethyl)-1,3,4-oxadiazol-2-yl)piperidin-1-yl)nicotinonitrile], at GPR119 [1], it took 8.2 nM to reach a half-maximal effect (EC50) and the “Emax (Fold)” value was found to be 2.9 Fold. Besides, the “Emax (% RR)” value on GPR119 [2] is recorded as 101.3 % RR.
As for `CC(C)n1ncn(-c2ccc(-c3cnc(N4CCC(c5nnc(C(F)(F)F)o5)CC4)c(C#N)c3)cc2F)c1=O` [Example 74, 5-(3-fluoro-4-(1-isopropyl-5-oxo-1H-1,2,4-triazol-4(5H)-yl)phenyl)-2-(4-(5-(trifluoromethyl)-1,3,4-oxadiazol-2-yl)piperidin-1-yl)nicotinonitrile], at GPR119 [1], a half-maximal response (EC50) required 5.6 nM and the “Emax (Fold)” value is reported as 3.0 Fold. In addition, on GPR119 [2], the “Emax (% RR)” value came to 104.2 % RR.
`COCCn1ncn(-c2ccc(-c3cnc(N4CCC(c5nnc(C(F)(F)F)o5)CC4)c(C#N)c3)cc2F)c1=O` [Example 76, 5-(3-fluoro-4-(1-(2-methoxyethyl)-5-oxo-1H-1,2,4-triazol-4(5H)-yl)phenyl)-2-(4-(5-(trifluoromethyl)-1,3,4-oxadiazol-2-yl)piperidin-1-yl)nicotinonitrile]: at GPR119 [1], the EC50 stood at 19.6 nM and the “Emax (Fold)” value came out at 2.9 Fold. Also, the “Emax (% RR)” value on GPR119 [2] was 101.8 % RR.
